{"source": "ChEMBL document CHEMBL6120947", "about": "“Synthesis and Antiosteoporotic Characterization of Diselenyl Maleimides: Discovery of a Potent Agent for the Treatment of Osteoporosis by Targeting RANKL” (J Med Chem, 2024)", "key": {"BMDM": {"tested_on": "BMDM", "test": "Inhibition of osteoclastogenesis in M-CSF/RANKL-induced osteoclast differentiation in C57BL/6J mouse BMDM cells assessed as decrease in c-Fos level at 1 uM measured for 5 days by Western blot analysis", "type": "functional, cell-based", "conditions": "time 5.0 day"}, "MC3T3-E1": {"tested_on": "MC3T3-E1", "test": "Effect on osteoblast differentiation in mouse MC3T3-E1 cells assessed as change in BMP2 mRNA level at 0.5 to 2 uM incubated for 7 days by qRT-PCR analysis", "type": "functional, cell-based", "conditions": "dose 0.5-2 µM, time 7.0 day"}}, "note": "The source made the active and inactive calls. No cut-off for these calls is given here.", "data": [{"compound": "O=C1C([Se]c2ccccc2)=C([Se]c2ccccc2)C(=O)N1Cc1ccccc1", "values": [{"measurement": "inhibition", "setting": "BMDM", "result": "Active"}, {"measurement": "Activity", "setting": "MC3T3-E1", "result": "No effect"}]}]}
